Data taken from publication PMC3094505 (Structure (London, England : 1993), 2011).
Where two headings read alike, the source gives them in different places. Where no end group is shown, it is not given here.

Experiments:
[1] = molecular target: CaM1-80 (N-domain of CaM) (Paramecium tetraurelia, UniProt P07463); assay: Equilibrium Ca2+ titration of CaM1-80 with Nav1.2IQp; format: biochemical; conditions: 6 μM CaM, 9 μM Nav1.2IQp, 22 °C; phenylalanine fluorescence
[2] = molecular target: T1, CaM1-148 (full-length CaM) (Paramecium tetraurelia, UniProt P07463); assay: Equilibrium Ca2+ titration of CaM1-148 with Nav1.2IQp; format: biochemical
[3] = molecular target: T1, CaM1-148 (full-length CaM); assay: Ca2+ titration of apo CaM1-148:Nav1.2IQp complex monitored by 15N/1H-HSQC; format: biochemical; conditions: 15N/1H-HSQC titration, pH 6.8
[4] = system: CaM; conditions: apo CaM compared with (Ca^2+)4-CaM
[5] = system: (Ca^2+)4-CaM (CaM1-148); format: binding, Paramecium; conditions: Nav1.2_1913-1938 in 6-fold excess, fluorescence anisotropy (Figure S6A)
[6] = system: CaM; conditions: ref Mori et al., 2000; cited from earlier work
[7] = molecular target: T1, CaM1-148 (full-length CaM); assay: Fluorescence anisotropy titration of Fl-Nav1.2IQp with CaM1-148; format: binding
[8] = molecular target: T2, CaM76-148 (C-domain of CaM) (Paramecium tetraurelia, UniProt P07463); conditions: read-out: Kd, Ca^2+-saturated CaM76-148 binding, stoichiometric binding, only an upper limit for Kd, fluorescence anisotropy, pH 7.4, 22 °C
[9] = molecular target: T2, CaM76-148 (C-domain of CaM); assay: biochemical

Sequence: KRKQEEVSAIVIQRAYRRYLLKQKVKK [Nav1.2IQp]
- effect on Ca^2+ binding to sites I and II of CaM1-80 [1]: little effect
- effect on Ca^2+ binding to sites I and II of CaM1-148 ([2]; 6 μM CaM, 9 μM Nav1.2IQp, 22 °C, phenylalanine fluorescence): little effect
- lowering of overall Ca^2+-binding affinity of CaM (free energy) ([2]; overall, CaM, with versus without Nav1.2IQp (Figure 2D)): 4.03 kcal/mol
- Ca^2+-binding affinity of sites I and II relative to sites III and IV of CaM1-148 bound to Nav1.2IQp [3]: slightly more favorable
- relative affinity for apo CaM versus (Ca^2+)4-CaM [4]: higher affinity for apo CaM than (Ca^2+)4-CaM

Sequence: QRAYRRYLLKQKVKKVSSIYKKDKGK [Nav1.2BAA-1913-1938]
- simultaneous binding of Nav1.2IQp and Nav1.2_1913-1938 to (Ca^2+)4-CaM [5]: no evidence for simultaneous binding
- binding to (Ca^2+)4-CaM [6]: binds to (Ca^2+)4-CaM

Sequence: KRKQEEVSAIVIQRAYRRYLLKQKVKK [Fl-Nav1.2IQp]
- Kd [7]: ≤ 10 nM
- Kd [8]: ≤ 10 nM
- Kd [9]: ≤ 10 nM
